Tests used:
[1] = target: T1, SOS-mediated nucleotide exchange on Ras (Homo sapiens, UniProt Q07889); assay: SOS-mediated nucleotide exchange on Ras (BODIPY-GDP fluorescence); format: biochemical; details: Ras loaded with BODIPY-GDP, GTP and SOS added; EC50 from derived exchange rates
T1 sequence (Q07889 1-1333): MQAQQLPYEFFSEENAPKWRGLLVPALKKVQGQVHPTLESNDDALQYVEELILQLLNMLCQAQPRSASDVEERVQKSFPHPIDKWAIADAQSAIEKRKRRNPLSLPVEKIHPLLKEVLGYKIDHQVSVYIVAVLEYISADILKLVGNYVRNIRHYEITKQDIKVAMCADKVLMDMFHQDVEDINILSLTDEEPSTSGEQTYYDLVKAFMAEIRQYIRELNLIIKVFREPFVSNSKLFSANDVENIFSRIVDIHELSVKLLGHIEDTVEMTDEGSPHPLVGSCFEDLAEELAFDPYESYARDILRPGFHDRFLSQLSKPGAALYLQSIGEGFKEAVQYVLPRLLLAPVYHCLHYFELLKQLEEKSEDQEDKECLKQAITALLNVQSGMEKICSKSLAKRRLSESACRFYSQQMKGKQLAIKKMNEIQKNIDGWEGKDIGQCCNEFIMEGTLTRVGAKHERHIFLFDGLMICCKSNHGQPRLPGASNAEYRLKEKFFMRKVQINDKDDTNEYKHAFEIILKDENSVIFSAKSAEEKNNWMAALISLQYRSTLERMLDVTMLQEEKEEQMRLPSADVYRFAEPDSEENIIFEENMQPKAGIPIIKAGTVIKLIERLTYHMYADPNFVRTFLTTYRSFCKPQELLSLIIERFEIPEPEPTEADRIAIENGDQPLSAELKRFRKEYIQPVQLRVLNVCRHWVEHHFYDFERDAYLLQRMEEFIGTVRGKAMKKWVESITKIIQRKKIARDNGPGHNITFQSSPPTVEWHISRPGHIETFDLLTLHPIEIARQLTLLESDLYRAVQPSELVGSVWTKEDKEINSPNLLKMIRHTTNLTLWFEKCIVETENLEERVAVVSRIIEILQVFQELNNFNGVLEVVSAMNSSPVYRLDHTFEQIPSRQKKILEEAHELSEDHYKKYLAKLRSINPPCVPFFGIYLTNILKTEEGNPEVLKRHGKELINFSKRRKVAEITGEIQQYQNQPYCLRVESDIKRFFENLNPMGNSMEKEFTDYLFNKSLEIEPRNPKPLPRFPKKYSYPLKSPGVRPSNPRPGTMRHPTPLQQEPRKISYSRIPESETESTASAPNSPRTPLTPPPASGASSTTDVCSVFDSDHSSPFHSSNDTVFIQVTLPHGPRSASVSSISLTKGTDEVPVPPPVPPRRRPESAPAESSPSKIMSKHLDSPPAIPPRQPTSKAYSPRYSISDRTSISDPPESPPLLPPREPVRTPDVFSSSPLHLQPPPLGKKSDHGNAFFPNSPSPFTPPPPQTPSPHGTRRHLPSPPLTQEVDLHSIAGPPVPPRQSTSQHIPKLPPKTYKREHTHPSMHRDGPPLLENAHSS
Procedure, shortened: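 Compound, then GTP and SOS, were added to buffered Ras preloaded with BODIPY-GDP, and the fluorescence change from labeled GDP being exchanged for GTP was followed over time. Rates came from single-exponential fits, and EC50 from a four-parameter fit of mean rate against compound concentration.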

[2] = system: H727 lung cancer cell lines, which contain a G12V K-Ras mutation; assay: Inhibition of cancer cell proliferation (CellTiter-Glo, 3 days); format: cell-based; details: Homo sapiens, NCI-H727, 72 h, H727 cells, 3 days at 37° C., normalized to DMSO control, read-out: Cell proliferation activity (H727 cancer cell line proliferation IC50)
Method: C. Inhibition of Cancer Cell Proliferation
Compounds of the present invention were measured for their ability to kill H727 lung cancer cell lines, which contain a G12V K-Ras mutation. Cell proliferation experiments were conducted in 96-well plates. Cells were plated at 1000 cells/well, incubated overnight, followed by treatment with a dose range of compound for 3 days at 37° C. Cell proliferation was assessed using a CellTiter-Glo assay (Promega) according to the manufacturer's protocol. Data were normalized to DMSO control. IC50 values were determined using a four-parameter dose-response (variable slope) equation. These assays are performed in a manner analogous to the assay disclosed in: Burns, M. C.; Sun, Q.; Daniels, R. N.; Camper, D. V.; Kennedy, J. P.; Phan, J.; Olejniczak, E. O.; Lee, T.; Waterson, A. G.; Rossanese, O. W.; Fesik, S. W. “Approach for targeting Ras with small molecules that activate SOS-mediated nucleotide exchange” Proc. Natl. Acad. Sci. 2014; 11(9): 3401-3406. PMCID: PMC3948241.

Son of Sevenless (SOS) = target: T2, Son of Sevenless (SOS) (Homo sapiens, UniProt Q07889); assay: Binding to SOS, fluorescence polarization anisotropy (FPA) displacement of FITC-conjugated probe; details: binding affinity calculated from IC50 of FITC-probe displacement, read-out: Binding affinities (binding affinity to SOS)
T2 sequence (Q07889 564-1049 limits assumed): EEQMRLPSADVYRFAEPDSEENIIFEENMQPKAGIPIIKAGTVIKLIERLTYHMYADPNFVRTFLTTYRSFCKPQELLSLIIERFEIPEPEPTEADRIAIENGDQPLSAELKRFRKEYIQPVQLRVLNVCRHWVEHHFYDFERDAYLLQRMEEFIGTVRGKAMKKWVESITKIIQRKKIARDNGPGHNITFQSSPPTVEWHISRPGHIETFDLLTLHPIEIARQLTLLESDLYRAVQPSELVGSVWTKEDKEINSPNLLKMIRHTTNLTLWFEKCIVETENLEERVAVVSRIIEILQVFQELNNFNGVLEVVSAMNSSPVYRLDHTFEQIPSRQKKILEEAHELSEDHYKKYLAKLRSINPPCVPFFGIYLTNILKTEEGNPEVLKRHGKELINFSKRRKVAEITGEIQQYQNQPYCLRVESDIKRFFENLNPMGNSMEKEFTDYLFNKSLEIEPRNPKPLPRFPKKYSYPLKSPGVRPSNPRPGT
Procedure, shortened: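 FITC-labelled probe incubated with SOS in buffer; displacement by test compound across a dose range read as fluorescence anisotropy change. IC50 from four-parameter variable-slope fit, binding affinity calculated from IC50.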

SMILES	EC50 [1]	IC50 [2]	Ki (Son of Sevenless (SOS))
C[C@@H](Nc1nc(Nc2cc[nH]n2)nc2c(C3=CCNCC3)cccc12)C1CC1 [Example 70, (R)—N^4-(1-cyclopropylethyl)-N^2-(1H-pyrazol-3-yl)-8-(1,2,3,6-tetrahydropyridin-4-yl)quinazoline-2,4-diamine]	> 30 µM	5 to 20 µM	> 5 µM
C[C@@H](Nc1nc(Oc2ccc(F)c(Cl)c2)nc2c(C3=CCNCC3)cccc12)C1CC1 [Example 69, (R)-2-(3-chloro-4-fluorophenoxy)-N-(1-cyclopropylethyl)-8-(1,2,3,6-tetrahydropyridin-4-yl)quinazolin-4-amine]	> 30 µM	1 to 5 µM	> 5 µM
C[C@@H](Nc1nc(Nc2ccn(C)n2)nc2c(C3=CCNCC3)cccc12)C1CC1 [Example 71, (R)—N^4-(1-cyclopropylethyl)-N^2-(1-methyl-1H-pyrazol-3-yl)-8-(1,2,3,6-tetrahydropyridin-4-yl)quinazoline-2,4-diamine]	5 to 30 µM	1 to 5 µM	> 5 µM
CCC(CC)CNc1nc(Nc2ccc(F)c(Cl)c2)nc2c(N3CCNCC3)cccc12 [Example 102, N^2-(3-chloro-4-fluorophenyl)-N^4-(2-ethylbutyl)-8-(piperazin-1-yl)quinazoline-2,4-diamine]	5 to 30 µM	1 to 5 µM	> 5 µM
C1=C(c2cccc3c(NC(C4CC4)C4CC4)nc(NCC4CCCCC4)nc23)CCNC1 [Example 73, N^2-(cyclohexylmethyl)-N^4-(dicyclopropylmethyl)-8-(1,2,3,6-tetrahydropyridin-4-yl)quinazoline-2,4-diamine]	1 to 5 µM	< 1 µM	1 to 5 µM
CC[C@@H](Nc1nc(Nc2ccc(F)c(Cl)c2)nc2c(CCN)cccc12)C1CC1 [Example 50, (R)-8-(2-aminoethyl)-N^2-(3-chloro-4-fluorophenyl)-N^4-(1-cyclopropylpropyl)quinazoline-2,4-diamine]	1 to 5 µM	1 to 5 µM	–
C[C@@H](Nc1nc(NCc2ncco2)nc2c(C3=CCNCC3)cccc12)C1CC1 [Example 72, (R)—N^4-(1-cyclopropylethyl)-N^2-(oxazol-2-ylmethyl)-8-(1,2,3,6-tetrahydropyridin-4-yl)quinazoline-2,4-diamine]	5 to 30 µM	5 to 20 µM	> 5 µM
CC[C@@H](Nc1nc(Nc2ccc(F)c(Cl)c2)nc2c(CN)cccc12)C1CC1 [Example 68, (R)-8-(aminomethyl)-N^2-(3-chloro-4-fluorophenyl)-N^4-(1-cyclopropylpropyl)quinazoline-2,4-diamine]	1 to 5 µM	1 to 5 µM	> 5 µM
C[C@@H](Nc1nc(NCC2CCCCC2)nc2c(C3=CCNCC3)cccc12)C1CC1 [Example 76, (R)—N^2-(cyclohexylmethyl)-N^4-(1-cyclopropylethyl)-8-(1,2,3,6-tetrahydropyridin-4-yl)quinazoline-2,4-diamine]	1 to 5 µM	< 1 µM	1 to 5 µM
NCc1cccc2c(NC(C3CC3)C3CC3)nc(NCC3CCCCC3)nc12 [Example 75, 8-(aminomethyl)-N^2-(cyclohexylmethyl)-N^4-(dicyclopropylmethyl)quinazoline-2,4-diamine]	5 to 30 µM	< 1 µM	> 5 µM
CC[C@@H](Nc1nc(Nc2ccc(F)c(Cl)c2)nc2c(C3=CCNCC3)cccc12)c1cccs1 [Example 100, (R)—N^2-(3-chloro-4-fluorophenyl)-8-(1,2,3,6-tetrahydropyridin-4-yl)-N^4-(1-(thiophen-2-yl)propyl)quinazoline-2,4-diamine]	5 to 30 µM	< 1 µM	–
C[C@@H](Nc1nc(NCC2CCCCCC2)nc2ccccc12)C1CC1 [Example 5, (R)—N^2-(cycloheptylmethyl)-N^4-(1-cyclopropylethyl)quinazoline-2,4-diamine]	5 to 30 µM	1 to 5 µM	> 5 µM
C[C@@H](Nc1nc(NCC2CCCCC2)nc2c(CN)cccc12)C1CC1 [Example 78, (R)-8-(aminomethyl)-N^2-(cyclohexylmethyl)-N^4-(1-cyclopropylethyl)quinazoline-2,4-diamine]	1 to 5 µM	5 to 20 µM	> 5 µM
CNCc1cccc2c(N[C@H](C)C3CC3)nc(Nc3ccc(F)c(Cl)c3)nc12 [Example 58, (R)—N^2-(3-chloro-4-fluorophenyl)-N^4-(1-cyclopropylethyl)-8-((methylamino)methyl)quinazoline-2,4-diamine]	5 to 30 µM	1 to 5 µM	> 5 µM
CC1CCC(CNc2nc(N[C@H](C)C3CC3)c3cccc(C4=CCNCC4)c3n2)CC1 (stereo partly drawn) [Example 104, (R)—N^4-(1-cyclopropylethyl)-N^2-((4-methylcyclohexyl)methyl)-8-(1,2,3,6-tetrahydropyridin-4-yl)quinazoline-2,4-diamine]	1 to 5 µM	< 1 µM	1 to 5 µM
CC[C@@H](Nc1nc(Nc2ccc(F)c(Cl)c2)nc2c(N3CCNCC3)cccc12)C1CC1 [Example 64, (R)—N^2-(3-chloro-4-fluorophenyl)-N^4-(1-cyclopropylpropyl)-8-(piperazin-1-yl)quinazoline-2,4-diamine]	1 to 5 µM	< 1 µM	1 to 5 µM
C[C@@H](Nc1nc(Nc2cc(F)cc(F)c2)nc2ccc(CCN)cc12)C1CC1 [Example 109, (R)-6-(2-aminoethyl)-N^4-(1-cyclopropylethyl)-N^2-(3,5-difluorophenyl)quinazoline-2,4-diamine]	1 to 5 µM	< 1 µM	–
C[C@@H](Nc1nc(Nc2ccc(F)c(Cl)c2)nc2ccccc12)C1CC1 [Example 1, (R)—N^2-(3-chloro-4-fluorophenyl)-N^4-(1-cyclopropylethyl)quinazoline-2,4-diamine]	5 to 30 µM	1 to 5 µM	–

Source: patent publication US11318137B2, “Quinazoline compounds as modulators of Ras signaling” (VANDERBILT UNIVERSITY, priority 2017, dated 2022)
